The results in this text go back to patent US20150376172A1, “FLUORO-[1,3]OXAZINES AS BACE1 INHIBITORS” (HOFFMANN-LA ROCHE INC., priority 2013, published 2015).

Molecules are shown by their SMILES. Counter-ions that a name gives are not always drawn. Where only a bound is given, the exact number is not on record here.

T1 sequence (P56817 46-501): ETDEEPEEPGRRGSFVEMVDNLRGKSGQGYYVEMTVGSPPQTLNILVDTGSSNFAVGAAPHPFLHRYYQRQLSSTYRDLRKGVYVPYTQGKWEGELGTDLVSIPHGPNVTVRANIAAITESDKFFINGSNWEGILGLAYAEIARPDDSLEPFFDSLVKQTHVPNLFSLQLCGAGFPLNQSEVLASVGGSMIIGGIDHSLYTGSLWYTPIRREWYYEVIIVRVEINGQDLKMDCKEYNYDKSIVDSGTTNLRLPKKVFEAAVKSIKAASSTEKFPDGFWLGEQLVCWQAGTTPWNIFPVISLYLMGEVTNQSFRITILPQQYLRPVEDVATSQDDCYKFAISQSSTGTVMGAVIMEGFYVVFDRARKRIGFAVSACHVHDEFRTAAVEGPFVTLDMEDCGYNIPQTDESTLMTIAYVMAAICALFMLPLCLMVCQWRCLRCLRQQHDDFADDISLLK

This test has as its target T1, BACE1 (Homo sapiens, UniProt P56817).
T1 construct: endogenous in cells; host or cells: HEK293 APP cells
The test can be described thus: Cellular Aβ-lowering assay (Abeta 40 AlphaLISA). The format is cell-based. The conditions noted are these: HEK293 APP cells; 18-20 hrs incubation; Aβ 40 in culture supernatants by AlphaLISA; read-out: BACE1 cell act. Aβ40 IC50. As for the experimental part:
Cellular Aβ-lowering assay:
The Abeta 40 AlphaLISA Assay can be used. The HEK293 APP cells were seeded in 96 well Microtiter plates in cell culture medium (Iscove's, plus 10% (v/v) fetal bovine serum, penicillin/streptomycin) to about 80% confluency and the compounds were added at a 3× concentration in ⅓ volume of culture medium (final DMSO concentration was kept at 1% v/v). After 18-20 hrs incubation at 37° C. and 5% CO2 in a humidified incubator, the culture supernatants were harvested for the determination of Aβ 40 concentrations using Perkin-Elmer Human Amyloid beta 1-40 (high specificity) Kit (Cat#AL275C).
In a Perkin-Elmer White Optiplate-384 (Cat#6007290), 2 ul culture supernatants were combined with 2 μl of a 10× AlphaLISA Anti-hAβAcceptor beads+Biotinylated Antibody Anti-Aβ1-40 Mix (50 μg/mL/5 nM). After 1 hour room temperature incubation, 16 μl of a 1.25× preparation of Streptavidin (SA) Donor beads (25 μg/mL) were added and incubated for 30 minutes in the Dark. Light Emission at 615 nm was then recorded using EnVision-Alpha Reader. Levels of Aβ 40 in the culture supernatants were calculated as percentage of maximum signal (cells treated with 1% DMSO without inhibitor). The IC50 values were calculated using the Excel XLfit software.
(Bead proximity is the source of the signal in Alpha formats.)
As a reminder, the IC50 is the point on the concentration scale where inhibition reaches its midpoint. As for `CC#CCOc1cnc(C(=O)Nc2ccc(F)c([C@@]3(C)N=C(N)O[C@H](C(F)(F)F)[C@@H]3F)c2)cn1` [Example 7, N-(3-((4R,5R,6S)-2-Amino-5-fluoro-4-methyl-6-(trifluoromethyl)-5,6-dihydro-4H-1,3-oxazin-4-yl)-4-fluorophenyl)-5-(but-2-ynyloxy)pyrazine-2-carboxamide], the IC50 is 0.002 µM.
Turning to `COc1cnc(C#Cc2ccc(F)c([C@]3(C)C[C@@H](C(F)(F)F)OC(N)=N3)c2)cn1` [Example 25, (4S,6S)-4-(2-Fluoro-5-((5-methoxypyrazin-2-yl)ethynyl)phenyl)-4-methyl-6-(trifluoromethyl)-5,6-dihydro-4H-1,3-oxazin-2-amine], the IC50 amounted to 1.28 µM.
The same measure for `C[C@]1(F)[C@H](C(F)(F)F)OC(N)=N[C@]1(C)c1cc(NC(=O)c2ccc(C#N)cn2)ccc1F` [Example 9, N-(3-((4R,5R,6R)-2-Amino-5-fluoro-4,5-dimethyl-6-(trifluoromethyl)-5,6-dihydro-4H-1,3-oxazin-4-yl)-4-fluorophenyl)-5-cyanopicolinamide]: 0.44 µM; for `Cc1cc(F)c([C@]2(C)C[C@@H](C(F)(F)F)OC(N)=N2)cc1C#Cc1ccc(C#N)cn1` [Example 70, 6-((5-((4S,6S)-2-Amino-4-methyl-6-(trifluoromethyl)-5,6-dihydro-4H-1,3-oxazin-4-yl)-4-fluoro-2-methylphenyl)ethynyl)nicotinonitrile]: 0.57 µM; for `C[C@@]1(c2cc(-c3cncc(C#N)c3)cs2)C[C@@H](C(F)(F)F)OC(N)=N1` [Example 26, 5-(5-((4S,6S)-2-Amino-4-methyl-6-(trifluoromethyl)-5,6-dihydro-4H-1,3-oxazin-4-yl)thiophen-3-yl)nicotinonitrile Hydrochloride]: 0.7 µM.
Regarding `C[C@@]1(c2cc(-c3cncnc3)cs2)C[C@@H](C(F)(F)F)OC(N)=N1` [Example 42, (4S,6S)-4-Methyl-4-(4-(pyrimidin-5-yl)thiophen-2-yl)-6-(trifluoromethyl)-5,6-dihydro-4H-1,3-oxazin-2-amine], the IC50 came out at 2.52 µM.
The same measure for `C[C@@]1(c2sc(-c3cncc(Cl)c3)cc2Cl)C[C@@H](C(F)(F)F)OC(N)=N1` [Example 32, (4S,6S)-4-(3-Chloro-5-(5-chloropyridin-3-yl)thiophen-2-yl)-4-methyl-6-(trifluoromethyl)-5,6-dihydro-4H-1,3-oxazin-2-amine]: 0.74 µM.
The same measure for `C[C@@]1(c2cc(C#Cc3ncc(Cl)cn3)ccc2F)C[C@@H](C(F)(F)F)OC(N)=N1` [Example 23, (4S,6S)-4-(5-((5-Chloropyrimidin-2-yl)ethynyl)-2-fluorophenyl)-4-methyl-6-(trifluoromethyl)-5,6-dihydro-4H-1,3-oxazin-2-amine]: 0.077 µM.
The figure for `C[C@@]1(c2cc(-c3cccc(C(F)(F)F)c3)cs2)C[C@@H](C(F)(F)F)OC(N)=N1` [Example 28, (4S,6S)-4-Methyl-6-(trifluoromethyl)-4-(4-(3-(trifluoromethyl)phenyl)thiophen-2-yl)-5,6-dihydro-4H-1,3-oxazin-2-amine] is 0.33 µM; for `C[C@@]1(c2c(F)ccc(NC(=O)c3ccc(C#N)cn3)c2F)C[C@@H](C(F)(F)F)OC(N)=N1` [Example 38, N-(3-((4S,6S)-2-amino-4-methyl-6-(trifluoromethyl)-5,6-dihydro-4H-1,3-oxazin-4-yl)-2,4-difluorophenyl)-5-cyanopicolinamide] it is 0.013 µM.
As to `N#Cc1cnc(C#Cc2ccc(F)c([C@]3(CF)C[C@@H](C(F)(F)F)OC(N)=N3)c2)c(Cl)c1` [Example 59, 6-((3-((4S,6S)-2-Amino-4-(fluoromethyl)-6-(trifluoromethyl)-5,6-dihydro-4H-1,3-oxazin-4-yl)-4-fluorophenyl)ethynyl)-5-chloronicotinonitrile], the IC50 came out at 0.79 µM.
The figure for `C[C@@]1(c2cc(C#Cc3ccc(C#N)cc3)ccc2F)C[C@@H](C(F)(F)F)OC(N)=N1` [Example 66, 4-((3-((4S,6S)-2-Amino-4-methyl-6-(trifluoromethyl)-5,6-dihydro-4H-1,3-oxazin-4-yl)-4-fluorophenyl)ethynyl)benzonitrile] is 0.2 µM.
Take `C[C@]1(c2cc(NC(=O)c3ccc(Cl)cn3)ccc2F)N=C(N)O[C@@H](C(F)(F)F)[C@@H]1F` [Example 3, N-(3-((4R,5R,6R)-2-Amino-5-fluoro-4-methyl-6-(trifluoromethyl)-5,6-dihydro-4H-1,3-oxazin-4-yl)-4-fluorophenyl)-5-chloropicolinamide]: the IC50 came to 0.49 µM.
The same measure for `C[C@@]1(c2cc(C#Cc3cncc(Cl)c3)ccc2F)C[C@@H](C(F)(F)F)OC(N)=N1` [Example 55, (4S,6S)-4-(5-((5-chloropyridin-3-yl)ethynyl)-2-fluorophenyl)-4-methyl-6-(trifluoromethyl)-5,6-dihydro-4H-1,3-oxazin-2-amine]: 1.17 µM.
For the compound `Cc1cc(F)c([C@]2(C)C[C@@H](C(F)(F)F)OC(N)=N2)cc1C#Cc1ncc(C#N)cc1Cl` [Example 69, 6-((5-((4S,6S)-2-Amino-4-methyl-6-(trifluoromethyl)-5,6-dihydro-4H-1,3-oxazin-4-yl)-4-fluoro-2-methylphenyl)ethynyl)-5-chloronicotinonitrile], the IC50 was determined as 0.13 µM.
Regarding `C[C@@]1(c2cc(C#Cc3ccc(C#N)nc3)ccc2F)C[C@@H](C(F)(F)F)OC(N)=N1` [Example 46, 5-((3-((4S,6S)-2-amino-4-methyl-6-(trifluoromethyl)-5,6-dihydro-4H-1,3-oxazin-4-yl)-4-fluorophenyl)ethynyl)picolinonitrile], the IC50 came out at 0.45 µM.
As to `C[C@@]1(c2cc(-c3ccccc3)ccc2F)C[C@@H](C(F)(F)F)OC(N)=N1` [Example 41, (4S,6S)-4-(4-Fluorobiphenyl-3-yl)-4-methyl-6-(trifluoromethyl)-5,6-dihydro-4H-1,3-oxazin-2-amine], the IC50 amounted to 6.42 µM.
The same measure for `CC#Cc1cncc(-c2cc([C@]3(C)C[C@@H](C(F)(F)F)OC(N)=N3)c(F)cc2F)c1` [Example 19, (4S,6S)-4-(2,4-Difluoro-5-(5-(prop-1-ynyl)pyridin-3-yl)phenyl)-4-methyl-6-(trifluoromethyl)-5,6-dihydro-4H-1,3-oxazin-2-amine]: 0.57 µM; for `Cc1cc(-c2cncc(-c3ccc(F)c([C@]4(CF)C[C@@H](C(F)(F)F)OC(N)=N4)c3)c2)n[nH]1` [Example 47, (4S,6S)-4-(2-fluoro-5-(5-(5-methyl-1H-pyrazol-3-yl)pyridin-3-yl)phenyl)-4-(fluoromethyl)-6-(trifluoromethyl)-5,6-dihydro-4H-1,3-oxazin-2-amine]: 10.6 µM; for `Cc1cc(C#Cc2ccc(F)c([C@]3(C)C[C@@H](C(F)(F)F)OC(N)=N3)c2)sn1` [Example 65, (4S,6S)-4-(2-Fluoro-5-((3-methylisothiazol-5-yl)ethynyl)phenyl)-4-methyl-6-(trifluoromethyl)-5,6-dihydro-4H-1,3-oxazin-2-amine]: 0.059 µM.
As to `C[C@@]1(c2cc(-c3cnn(C(F)F)c3)ccc2F)C[C@@H](C(F)(F)F)OC(N)=N1` [Example 16, (4S,6S)-4-(5-(1-(Difluoromethyl)-1H-pyrazol-4-yl)-2-fluorophenyl)-4-methyl-6-(trifluoromethyl)-5,6-dihydro-4H-1,3-oxazin-2-amine], the IC50 came to 1.1 µM.
The figure for `C[C@@]1(c2cc(-c3nnc(-c4ccc(Cl)cc4)o3)ccc2F)C[C@@H](C(F)(F)F)OC(N)=N1` [Example 40, (4S,6S)-4-(5-(5-(4-Chlorophenyl)-1,3,4-oxadiazol-2-yl)-2-fluorophenyl)-4-methyl-6-(trifluoromethyl)-5,6-dihydro-4H-1,3-oxazin-2-amine] is over 40 µM; for `C[C@@]1(c2cc(-c3cncc(C#N)c3)ccc2F)C[C@@H](C(F)(F)F)OC(N)=N1` [Example 12, 5-(3-((4S,6S)-2-Amino-4-methyl-6-(trifluoromethyl)-5,6-dihydro-4H-1,3-oxazin-4-yl)-4-fluorophenyl)nicotinonitrile] it is 0.9 µM; for `COc1cnc(C(=O)Nc2ccc(F)c([C@@]3(C)N=C(N)O[C@H](C(F)(F)F)[C@@H]3F)c2)cn1` [Example 5, N-(3-((4R,5R,6S)-2-Amino-5-fluoro-4-methyl-6-(trifluoromethyl)-5,6-dihydro-4H-1,3-oxazin-4-yl)-4-fluorophenyl)-5-methoxypyrazine-2-carboxamide] it is 0.012 µM.
The same measure for `COc1cc(C#N)cnc1C#Cc1ccc(F)c([C@]2(CF)C[C@@H](C(F)(F)F)OC(N)=N2)c1` [Example 57, 6-((3-((4S,6S)-2-Amino-4-(fluoromethyl)-6-(trifluoromethyl)-5,6-dihydro-4H-1,3-oxazin-4-yl)-4-fluorophenyl)ethynyl)-5-methoxynicotinonitrile]: 0.52 µM; for `C[C@@]1(c2sc(-c3cccc(C#N)c3)cc2Cl)C[C@@H](C(F)(F)F)OC(N)=N1` [Example 33, 3-(5-((4S,6S)-2-Amino-4-methyl-6-(trifluoromethyl)-5,6-dihydro-4H-1,3-oxazin-4-yl)-4-chlorothiophen-2-yl)benzonitrile]: 0.51 µM.
